Here are results for 2 substances from patent US20230398211A1, “Liposomes Containing TLR4 Agonist, Preparation and Uses Thereof” (priority 2020, published 2023).

The nature of data set [1]: Alcohol solubility of E6020 and MPL in ethanol by nephelometry.
Description: The appearance and increase of opalescence, indicative of insolubility was followed by nephelometry.
RNU (Relative nephelometry Unit) of each solution was recorded and plotted on a graph.
The subject of data set [2] is sheep red blood cells. Nature of the data set: Hemolysis assay. The data set is classed as cell-based. The following applies: 30 minutes at 37° C. The protocol:
Before use, red blood cells (Sheep red blood cells 10%, Rockland, ref R405-0050, lot BP30202 (stored+4° C.) were washed in cold PBS. Five mL of sheep red blood cells were transferred into a 15 mL Falcon tube and 7 mL of cold PBS were added. Cells were centrifuged for 10 min 700 g at 4° C. Supernatant was carefully removed and cell pellet was suspended in 12 mL of cold PBS. Then, cell suspension was centrifuged for 10 min, 700 g at 4° C. The cell suspension and centrifugation steps were repeated twice. Finally, cells were suspended in PBS in a final volume of 5 mL ready-to-use.
In a round bottom P96 plate, 100 μL per well of PBS were added. Then, 100 μL per well of saponin QS21 or QS7 solutions were added in serial 2-fold dilutions (1.6 μM to 200 μM-) in a citrate buffer (Citrate 10 mM, NaCl 140 mM, pH 6.3). […]
Twenty-five μL/well of 10% red blood cell solution were added, and the plates were incubated for 30 minutes at 37° C. and then were centrifuged for 5 min 700 g at room temperature. Eighty μL per well of surnageant were collected and transfered to a flat bottom plate for spectrophotometer reading (OD 540 nm). The percentage of cell hemolysis is calculated for each saponin concentration tested in μM according to the formula: 100×[(sample absorbance−negative control absorbance)[…](positive control absorbance−negative control absorbance)]. […]

Consider “3-O-desacyl-4′-monophosphoryl lipid A [MPL]”, for which the “appearance of ethanol solution (opalescence)” value in data set [1] (0.5, 1.0, 2.0 and 10 mg/ml in absolute ethanol, mixed 3h at room temperature) is listed as “opalescent even at the lowest concentration tested”. For the same substance, the solubility in ethanol entry in data set [1] (absolute ethanol, room temperature (about 25° C.), nephelometry) is recorded as “very low solubility”.

On to QS21, for which, in data set [2] (read-out: effective concentration inducing hemolysis of 50% red blood cells (EC50)), the EC50 is 4.2 µM. In data set [2] (from 25 μM to 100 μM), this substance yielded an erythrocyte hemolysis of 100%.
